Source: the NIST ThermoML archive (doi:10.1016/j.jct.2010.09.008)

Key:
[1] = relative permittivity at zero frequency (dimensionless); xn = mol fraction of the nth substance listed; conditions: 101.3 kPa, Liquid, AC Method
[2] = xn = mol fraction of the nth substance listed; conditions: 101.3 kPa, Liquid, Vibrating tube method

COCCOCCOC [2,5,8-trioxanonane] + CCCCCCC
Conditions | mass density [kg/m3] | relative permittivity at zero frequency
[1], 288.15 K, x2 = 0.0492 | – | 7.25
[1], 288.15 K, x2 = 0.0982 | – | 6.84
[1], 288.15 K, x2 = 0.1991 | – | 6.04
[1], 288.15 K, x2 = 0.3006 | – | 5.3
[1], 288.15 K, x2 = 0.398 | – | 4.65
[1], 288.15 K, x2 = 0.4977 | – | 4.05
[1], 288.15 K, x2 = 0.5854 | – | 3.58
[1], 288.15 K, x2 = 0.7026 | – | 3.02
[1], 288.15 K, x2 = 0.801 | – | 2.61
[1], 288.15 K, x2 = 0.8927 | – | 2.28
[1], 288.15 K, x2 = 0.9408 | – | 2.12
[1], 298.15 K, x2 = 0.0494 | – | 6.98
[1], 298.15 K, x2 = 0.0988 | – | 6.59
[1], 298.15 K, x2 = 0.1956 | – | 5.85
[1], 298.15 K, x2 = 0.303 | – | 5.11
[1], 298.15 K, x2 = 0.3959 | – | 4.52
[1], 298.15 K, x2 = 0.4948 | – | 3.96
[1], 298.15 K, x2 = 0.6028 | – | 3.4
[1], 298.15 K, x2 = 0.7018 | – | 2.95
[1], 298.15 K, x2 = 0.7937 | – | 2.59
[1], 298.15 K, x2 = 0.891 | – | 2.25
[1], 298.15 K, x2 = 0.9419 | – | 2.09
[1], 308.15 K, x2 = 0.0494 | – | 6.73
[1], 308.15 K, x2 = 0.0981 | – | 6.35
[1], 308.15 K, x2 = 0.1993 | – | 5.62
[1], 308.15 K, x2 = 0.3025 | – | 4.94
[1], 308.15 K, x2 = 0.3951 | – | 4.39
[1], 308.15 K, x2 = 0.4936 | – | 3.86
[1], 308.15 K, x2 = 0.5951 | – | 3.36
[1], 308.15 K, x2 = 0.7021 | – | 2.89
[1], 308.15 K, x2 = 0.7993 | – | 2.53
[1], 308.15 K, x2 = 0.8953 | – | 2.21
[1], 308.15 K, x2 = 0.9472 | – | 2.06
[2], 288.15 K, x2 = 0.0482 | 935.46 | –
[2], 288.15 K, x2 = 0.0986 | 921.11 | –
[2], 288.15 K, x2 = 0.1969 | 893.54 | –
[2], 288.15 K, x2 = 0.3042 | 864.14 | –
[2], 288.15 K, x2 = 0.4054 | 836.87 | –
[2], 288.15 K, x2 = 0.5047 | 810.62 | –
[2], 288.15 K, x2 = 0.6049 | 784.64 | –
[2], 288.15 K, x2 = 0.6982 | 760.9 | –
[2], 288.15 K, x2 = 0.788 | 738.48 | –
[2], 288.15 K, x2 = 0.8899 | 713.78 | –
[2], 288.15 K, x2 = 0.9452 | 700.73 | –
[2], 298.15 K, x2 = 0.0484 | 925.56 | –
[2], 298.15 K, x2 = 0.1001 | 910.8 | –
[2], 298.15 K, x2 = 0.1957 | 884.11 | –
[2], 298.15 K, x2 = 0.2887 | 858.66 | –
[2], 298.15 K, x2 = 0.4049 | 827.49 | –
[2], 298.15 K, x2 = 0.4975 | 803.13 | –
[2], 298.15 K, x2 = 0.5939 | 778.25 | –
[2], 298.15 K, x2 = 0.6925 | 753.3 | –
[2], 298.15 K, x2 = 0.7931 | 728.38 | –
[2], 298.15 K, x2 = 0.8988 | 703 | –
[2], 298.15 K, x2 = 0.9481 | 691.49 | –
[2], 308.15 K, x2 = 0.0482 | 915.56 | –
[2], 308.15 K, x2 = 0.098 | 901.53 | –
[2], 308.15 K, x2 = 0.1961 | 874.29 | –
[2], 308.15 K, x2 = 0.3036 | 845.06 | –
[2], 308.15 K, x2 = 0.3981 | 819.81 | –
[2], 308.15 K, x2 = 0.4994 | 793.28 | –
[2], 308.15 K, x2 = 0.599 | 767.73 | –
[2], 308.15 K, x2 = 0.6963 | 743.26 | –
[2], 308.15 K, x2 = 0.7844 | 721.56 | –
[2], 308.15 K, x2 = 0.8841 | 697.7 | –
[2], 308.15 K, x2 = 0.9372 | 685.34 | –
[2], 308.15 K, x2 = 0.9738 | 676.94 | –
